{
  "source": "paper PMC10065799",
  "about": "“High-throughput profiling of sequence recognition by tyrosine kinases and SH2 domains using bacterial peptide display” (eLife, 2023)",
  "data": [
    {"biological_target": "mouse c-Abl kinase domain (residues 232-502) (mouse) (UniProt P00520)", "sequence (P00520 232-502)": "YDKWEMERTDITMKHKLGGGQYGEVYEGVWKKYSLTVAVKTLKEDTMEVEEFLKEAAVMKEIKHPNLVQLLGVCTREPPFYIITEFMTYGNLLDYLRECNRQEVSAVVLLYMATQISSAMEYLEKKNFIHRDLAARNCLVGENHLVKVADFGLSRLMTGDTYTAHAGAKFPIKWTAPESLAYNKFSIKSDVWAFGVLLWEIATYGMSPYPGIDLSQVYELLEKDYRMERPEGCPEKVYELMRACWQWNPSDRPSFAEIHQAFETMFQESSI", "test": "not given", "details": "not given", "units": {"KM (μM) of phosphorylation, Michaelis-Menten analysis, ADP-Quest assay": "µM"}, "values": [
      {"molecule": "Ac-GPDEPIYAVPPIKKKG-NH2", "note": "[Abl Consensus peptide Ac-…-NH2]", "KM (μM) of phosphorylation, Michaelis-Menten analysis, ADP-Quest assay": 6}
    ]},
    {"system": "EPHB1 kinase domain", "test": "ADP-Quest continuous fluorimetric kinase assay (initial rates of consensus peptides)", "format": "biochemical, human", "details": "peptide 100 or 20 μM, kinase 10–50 nM; Figure 2C and supplement 2", "text": "A fluorescence-based assay from Eurofins (ADP Quest) was used to measure the Michaelis-Menten kinetic parameters for phosphorylation of the consensus peptides by purified tyrosine kinase domains. In this assay, ADP production as a result of kinase activity is coupled to the production of resorufin, a fluorophore that emits signal at 590 nm. For all experiments, the assay reactions were set up as described in the provided assay kit protocol, in a 384 well plate format. The peptide solutions were serially diluted in 100 mM Tris, pH 8.0, and the kinases were diluted to 50 nM in buffer (10 mM HEPES, 100 mM NaCl, 1 mM TCEP, 5 mM MgCl2, 10% (v/v) glycerol). The final reaction mixtures contained 10 nM of kinase with 100 μM of ATP. […] Phosphorylation reaction progress was monitored by measuring fluorescence at excitation 530 nm and emission 590 nm every 2 min at 37 °C on a plate reader (BioTek Synergy Neo 2). The fluorescence units (RFU) were converted to μM ADP by comparison to a standard curve, and the initial rates were extracted from the linear regime of the reaction progress curves. Initial rates were also measured for samples containing each kinase but lacking a peptide substrate, to account for background ATP hydrolysis. This background rate was subtracted from the rates measured in the presence of peptide. […]", "values": [
      {"molecule": "Ac-GPPEPNYEVIPPKKKG-NH2 [EPHB1 Consensus, EPHB1 consensus substrate peptide from X5-Y-X5 screen]", "phosphorylation of consensus peptide by EPHB1 (initial rate relative to cognate consensus)": "did not prefer"}
    ]},
    {"biological_target": "T1, c-Src kinase domain (Homo sapiens, UniProt P12931)", "test": "RP-HPLC assay to measure peptide phosphorylation kinetics", "format": "biochemical", "details": "purified peptide substrate", "experimental": "To validate the enrichment scores observed in the c-Src screening data, the phosphorylation rates were measured in vitro with the purified catalytic domain of c-Src and synthetic 11-residue peptides derived from sequences in the pTyr-Var library. […] Reactions were initiated by adding 1 mM ATP. At various time points, 100 μL aliquots were removed and quenched by the addition of EDTA to a final concentration of 25 mM. Each time point sample was analyzed by analytical RP-HPLC, monitoring absorbance at 214 nm. Forty μL of each time point was injected onto a C18 column (ZORBAX 300 SB-C18, 5 μm, 4.6x150 mm). The solvent system used was water with 0.1% trifluoroacetic acid (solvent A) and acetonitrile with 0.1% trifluoroacetic acid (solvent B). […] The fractional product peak area was plotted as a function of reaction time, and the initial linear regime of this plot was fitted to a straight line to determine a reaction rate. Rates were corrected for substrate and enzyme concentration. Reactions were done in triplicate or quadruplicate.", "units": {"Phosphorylation Rate": "s⁻¹"}, "values": [
      {"molecule": "Ac-IGEGTYRQVFK-NH2 [CDK13_Y716_G717R_YF, pTyr-Var library variant phosphosite peptide]", "Phosphorylation Rate": 0.195},
      {"molecule": "Ac-IGEGTYGQVFK-NH2 [CDK13_Y716_YF]", "Phosphorylation Rate": 3.100},
      {"molecule": "Ac-IGEGTYGTVFK-NH2 [CDK5-Y15]", "Phosphorylation Rate": 2.587}
    ]},
    {"biological_target": "T2, c-Abl kinase domain (Mus musculus, UniProt P00520)", "T2 sequence (P00520 242-493 limits assumed)": "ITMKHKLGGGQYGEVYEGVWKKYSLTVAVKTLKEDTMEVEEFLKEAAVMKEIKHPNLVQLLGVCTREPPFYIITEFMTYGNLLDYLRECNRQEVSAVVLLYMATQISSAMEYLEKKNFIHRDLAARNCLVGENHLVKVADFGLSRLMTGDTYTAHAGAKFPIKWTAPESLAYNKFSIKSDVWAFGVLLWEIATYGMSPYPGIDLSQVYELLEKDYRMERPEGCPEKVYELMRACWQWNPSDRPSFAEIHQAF", "test": "RP-HPLC assay to measure peptide phosphorylation kinetics", "format": "biochemical", "details": "purified peptide substrate", "units": {"Phosphorylation Rate": "s⁻¹"}, "values": [
      {"molecule": "Ac-GNLLIYTELGK-NH2 [HGD_Y166_F169L, pTyr-Var library variant peptide, non-canonical c-Abl substrate]", "Phosphorylation Rate": 0.238},
      {"molecule": "Ac-IGEGTYGTVFK-NH2 [CDK5-Y15]", "Phosphorylation Rate": 0.085}
    ]},
    {"biological_target": "T1, c-Src kinase domain", "test": "pTyr-Var library bacterial peptide display kinase screen (enrichment scores);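 note: log2 fold change in enrichment of variant over reference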", "format": "biochemical", "details": "sheet \"Src\"; effect of the variant peptide relative to its reference peptide in the pTyr-Var library screen", "values": [
      {"molecule": "ITNHIYTWVDP [DFNB31_Y234_V229I]", "Screen": 0.3882},
      {"molecule": "Ac-IGEGTYRQVFK-NH2 [CDK13_Y716_G717R_YF, pTyr-Var library variant phosphosite peptide]", "Screen": -4.535},
      {"molecule": "LDAFIYDAALL [GRIN2A_Y730_V734L]", "Screen": 0.1286},
      {"molecule": "TQNAVYSAANF [DDX5_Y535_G533A_YF]", "Screen": 0.6379},
      {"molecule": "FNSLLYQVPTS [CALCOCO2_Y358_P357L]", "Screen": 2.72},
      {"molecule": "DPLLTYWFPPK [LMNA_Y481_R482W]", "Screen": 3.284},
      {"molecule": "ITSLLYHVVGW [GBA_Y412_N409S]", "Screen": -0.3669},
      {"molecule": "ITNLLYHVVGG [GBA_Y412_W417G]", "Screen": -0.2777},
      {"molecule": "Ac-GNLLIYTELGK-NH2 [HGD_Y166_F169L, pTyr-Var library variant peptide, non-canonical c-Abl substrate]", "Screen": -0.3242},
      {"molecule": "TLSGIYQFNIA [FOXL2_Y81_I84N_YF]", "Screen": -0.3308}
    ]},
    {"system": "Fer kinase domain", "test": "pTyr-Var library bacterial peptide display kinase screen (enrichment scores);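 note: log2 fold change in enrichment of variant over reference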", "format": "biochemical, mouse", "details": "sheet \"Fer\"; value of the variant peptide against its reference peptide in the pTyr-Var library screen with Fer", "values": [
      {"molecule": "ITNHIYTWVDP [DFNB31_Y234_V229I]", "Screen": -0.03067},
      {"molecule": "LDAFIYDAALL [GRIN2A_Y730_V734L]", "Screen": -0.3557},
      {"molecule": "TQNAVYSAANF [DDX5_Y535_G533A_YF]", "Screen": 0.4164},
      {"molecule": "FNSLLYQVPTS [CALCOCO2_Y358_P357L]", "Screen": 3.519},
      {"molecule": "ITSLLYHVVGW [GBA_Y412_N409S]", "Screen": 0.08882},
      {"molecule": "ITNLLYHVVGG [GBA_Y412_W417G]", "Screen": -1.01},
      {"molecule": "TLSGIYQFNIA [FOXL2_Y81_I84N_YF]", "Screen": -1.015}
    ]},
    {"system": "EPHB1 kinase domain", "test": "pTyr-Var library bacterial peptide display kinase screen (enrichment scores);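 note: log2 fold change in enrichment of variant over reference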", "format": "biochemical, human", "details": "sheet EPHB1; effect of the variant peptide relative to its reference peptide in the pTyr-Var library screen (enrichment scores)", "values": [
      {"molecule": "ITNHIYTWVDP [DFNB31_Y234_V229I]", "Screen": 0.06659},
      {"molecule": "LDAFIYDAALL [GRIN2A_Y730_V734L]", "Screen": -0.2525},
      {"molecule": "TQNAVYSAANF [DDX5_Y535_G533A_YF]", "Screen": 1.023},
      {"molecule": "FNSLLYQVPTS [CALCOCO2_Y358_P357L]", "Screen": 4.751},
      {"molecule": "DPLLTYWFPPK [LMNA_Y481_R482W]", "Screen": 4.875},
      {"molecule": "ITSLLYHVVGW [GBA_Y412_N409S]", "Screen": -0.08421},
      {"molecule": "ITNLLYHVVGG [GBA_Y412_W417G]", "Screen": 0.07416},
      {"molecule": "Ac-GNLLIYTELGK-NH2 [HGD_Y166_F169L, pTyr-Var library variant peptide, non-canonical c-Abl substrate]", "Screen": 1.156},
      {"molecule": "TLSGIYQFNIA [FOXL2_Y81_I84N_YF]", "Screen": -4.223}
    ]},
    {"system": "EPHB2 kinase domain", "test": "pTyr-Var library bacterial peptide display kinase screen (enrichment scores);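 note: log2 fold change in enrichment of variant over reference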", "format": "biochemical, human", "details": "sheet EPHB2; effect of variant peptide relative to its reference peptide in the pTyr-Var library screen (enrichment scores)", "values": [
      {"molecule": "ITNHIYTWVDP [DFNB31_Y234_V229I]", "Screen": -0.0087},
      {"molecule": "LDAFIYDAALL [GRIN2A_Y730_V734L]", "Screen": -0.3341},
      {"molecule": "TQNAVYSAANF [DDX5_Y535_G533A_YF]", "Screen": 1.01},
      {"molecule": "FNSLLYQVPTS [CALCOCO2_Y358_P357L]", "Screen": 5.149},
      {"molecule": "DPLLTYWFPPK [LMNA_Y481_R482W]", "Screen": 5.36},
      {"molecule": "ITSLLYHVVGW [GBA_Y412_N409S]", "Screen": -0.2083},
      {"molecule": "ITNLLYHVVGG [GBA_Y412_W417G]", "Screen": -0.0356},
      {"molecule": "Ac-GNLLIYTELGK-NH2 [HGD_Y166_F169L, pTyr-Var library variant peptide, non-canonical c-Abl substrate]", "Screen": 1.177},
      {"molecule": "TLSGIYQFNIA [FOXL2_Y81_I84N_YF]", "Screen": -4.083}
    ]}
  ]
}
